Laboratory results: the METLIN SMRT retention time set (Domingo-Almenara et al. 2019)

experiment: gradient 5% acetonitrile 3 min, to 50% in 2 min, to 85% in 15 min, held 3 min, 100 µL/min; conditions: column: Zorbax Extend-C18 2.1 x 50 mm; eluents: water / acetonitrile, 0.1% formic acid
In short: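 Each retention time is based on an adduct peak selected computationally and verified by manual inspection. Measurements used HPLC–quadrupole time-of-flight mass spectrometry in positive and negative ionization mode on mixtures of ~100 pure standards. Chromatography ran on a Zorbax Extend-C18 column (2.1 × 50 mm, 1.8 μm) at 100 μL/min with water and acetonitrile, each containing 0.1% formic acid, and dead and dwell volumes of 40 μL and 900 μL.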

Structure (SMILES) | RP-LC retention time [s]
CCn1c(C)c(C(=O)C(C)N(Cc2ccc(F)cc2)C(=O)C2CC2)c(C)c1C(=O)OC (stereo unspecified) | 1030
COCC(=O)NC1CCC12CCN(C(=O)CCC1CCCC1)CC2 (stereo unspecified) | 735
CCC(C)NC(=O)C1CCCN1S(=O)(=O)c1cc2c(cc1C)NC(=O)CO2 (stereo unspecified) | 710
Cc1ccc(C)c(-c2csc(NC(=O)COc3ccccc3)n2)c1 | 1150
CN1c2ccc(F)cc2C(=O)NC12CCN(C(=O)NCc1ccc(F)cc1)CC2 | 750
Cn1cc(CCN2CCC(C(=O)NCC3CCCCC3)CC2)c2cccnc21 | 619
COc1ccc(-c2noc(C3CC(=O)N(c4cccc(Cl)c4)C3)n2)c(OC)c1 (stereo unspecified) | 878
C=C(C)COc1ccc2oc(C)c(C(=O)O)c2c1 | 879
Cc1ccc(N2CCC(NC(=O)C(C)(C)C)C2=O)cc1C (stereo unspecified) | 802
CCC(C)NC(=O)c1c(C)oc2ccn(Cc3ccc(F)cc3)c(=O)c12 (stereo unspecified) | 1040
Cc1ccc(-n2nc3c(=O)n(CCCC(=O)NCC4CCCO4)nc(C)c3c2C)cc1 (stereo unspecified) | 731
COC(=O)c1cnc2nc(C)ccc2c1Nc1ccc(Cl)cc1C | 721
CCn1cc(-c2nc(C)c(C(=O)Nc3cc(F)cc(F)c3)s2)c2cccnc21 | 1120
Cc1cc(C)c(C(=O)N2CCCC(C(=O)NCCC(C)C)C2)[nH]1 (stereo unspecified) | 788
COc1ccc2c(c1)C(O)(CC(=O)c1ccc(-c3ccc(Cl)cc3)o1)C(=O)N2 (stereo unspecified) | 797
COc1ccc(-c2noc(Cc3nc(-c4ccc(C)cc4)cs3)n2)cc1 | 1250
CNC(=O)C1CCCN(c2nc3ncn(CC(=O)Nc4cc(C)cc(C)c4)c(=O)c3s2)C1 (stereo unspecified) | 694
CSc1ccccc1NC(=O)c1coc(NC(=O)c2ccco2)n1 | 699
CC1CCCC(C)N1CCCNC(=O)c1cc2sccc2n1Cc1ccc(Cl)cc1 (stereo unspecified) | 783
CCn1cc(CCNC(=O)C2CCCC2)c2cccnc21 | 654
CCc1ccc(NC(=O)c2cc3c(=O)n(CC)ccc3n2C)cc1 | 753
CCCC(=O)Nc1ccc(CCc2nc3ccc(C(=O)NC4CC4)cc3[nH]2)cc1 | 599

Structure (SMILES) | RP-LC retention time [s]
CC(C)N1CCn2c(nc3cc(C(=O)NCc4ccccc4C(F)(F)F)ccc32)C1=O | 768
COc1ccc(S(=O)(=O)N2[C@H]3CC[C@@H]2c2cnc(-c4ccccc4)nc2C3)cc1 | 1030
CCCCn1c(=O)c2ccccc2n(Cc2nc(-c3ccc(C)cc3)no2)c1=O | 853
CCCS(=O)(=O)c1nc2ccc(NS(=O)(=O)Cc3cc(F)cc(F)c3)cc2s1 | 938
CCC(CC)C(=O)N1CCN(Cc2nc3cc(C(=O)N4CCCC4)ccc3n2C)CC1 | 598
CCCOc1ccc(CN2C[C@@H](CO)[C@H](c3ccccn3)C2)cc1 | 578
Cc1ccc2[nH]c(=O)c(CCC(=O)NCCCN3CCCC(C)C3)cc2c1 (stereo unspecified) | 594
CC(C)CCNC(=O)C1CCN(S(=O)(=O)c2ccc3c(c2)sc(=O)n3C)CC1 | 832
c1ccc(CCc2nc(-c3ccnc(N4CCOCC4)c3)no2)cc1 | 919
O=C(NC1CCCN(c2ccc(=O)[nH]n2)C1)c1cc2cc(Cl)ccc2[nH]1 (stereo unspecified) | 743
Cc1cc(C)cc(NC(=O)C2CCN(S(=O)(=O)c3cc(-c4noc(C5CC5)n4)cs3)CC2)c1 | 1020
Fc1cccc(Cn2cc(-c3noc(-c4cccc(F)c4)n3)nn2)c1 | 1040
O=C(Cc1ccccc1F)N1CCc2cc(-c3ccno3)ccc21 | 961
Cc1cnc(CC2CCN(S(=O)(=O)c3ccccc3)C2)n1C(C)C (stereo unspecified) | 650
Cc1ccc(-n2ncc3c(NCCCN(C)C)ncnc32)cc1C | 625
O=C(CCSCCc1ccccn1)Nc1c(F)cc(F)cc1Br | 627
CSc1ccc(CCNC(=O)c2nnc(-c3ccc(S(=O)(=O)N4CCCC4)cc3)o2)cc1 | 982
CCCNS(=O)(=O)c1cc(-c2[nH]ncc2C(=O)N2CCOCC2)oc1C | 662
COc1ccc(-c2cc(N3CCC(NC(=O)c4ccc(Br)cc4)C3)n[nH]2)cc1 (stereo unspecified) | 966
COc1ccc(-c2cc(C(=O)N3CCC(NC(=O)C4CC4)CC3)[nH]n2)cc1 | 652
Cc1cc(-c2nnc(-c3ccccc3)o2)c(C)n1CC(=O)Nc1ccc(F)c(F)c1 | 1010
Cc1ccccc1-c1nc(N)n(C(=O)C(C)(C)C)n1 | 1100

The remaining lines, values ahead:

RP-LC retention time [s] | Structure (SMILES)
800 | O=C(Nc1cccc(F)c1)C1CCc2nc(N3CCCCC3)ncc2C1 (stereo unspecified)
703 | CCN1c2ccccc2C(=O)NC12CCN(C(=O)Nc1cccc(OC)c1)CC2
713 | Cc1cc(N2CCCC2)nc(N2CCN(C(=O)c3ccc(Br)cc3)CC2)n1
808 | O=C(Cc1csc2nc(-c3ccccc3)cn12)NC1CCCCCC1
933 | Cc1ccc(S(=O)(=O)CC(=O)Nc2nc(-c3ccccc3)cs2)cc1
916 | Cc1nn2c(CNS(=O)(=O)c3ccc(C)c(C)c3)c(-c3ccccc3)nc2s1
848 | O=C(c1n[nH]c(=O)c2ccccc12)N1CCCC1c1nc(CCOCC2CCCC2)no1 (stereo unspecified)
590 | O=C(COc1ccc2ccccc2c1)NCC1CCN(C2CCCC2)CC1
609 | CNC(=O)Cn1nc(C2CCN(C(=O)c3nccc4ccccc34)CC2)c2c1CCOC2
916 | O=C(NC1CCCCC1)c1csc(-c2ccc(N3CCOCC3)nc2)n1
615 | Cc1nn(CC(=O)NCc2ccncc2)c(=O)c2nc(-c3ccccc3)sc12
718 | CCN(CC)c1ccc(-c2noc(CN3CCc4ccccc4C3)n2)cn1
1190 | O=C(Nc1ccc(F)cc1)C1CCCN(c2nc3ccccc3nc2C(F)(F)F)C1 (stereo unspecified)
1060 | Cc1cccc(Sc2nccnc2N2CCC(C(=O)NCc3ccccc3)CC2)c1
772 | O=C(NCc1csc(-c2cccs2)n1)C1CCN(C(=O)c2cccc(F)c2)CC1
1020 | COc1cccc(-n2c(N3CCCC(C(=O)NCCC4=CCCCC4)C3)nc3ccsc3c2=O)c1 (stereo unspecified)
866 | CC(CC(=O)N1CCN(c2ccccc2)CC1)S(=O)(=O)c1ccc2c(c1)CCN2C(=O)C1CC1 (stereo unspecified)
739 | Cc1nn(C(C)C(=O)NC(C)C)c(=O)c2nn(-c3ccccc3)c(C)c12 (stereo unspecified)
1050 | N#Cc1ccc(NC(=O)C2CCN(S(=O)(=O)c3cc(-c4noc(C5CCC5)n4)cs3)CC2)cc1
755 | O=C(c1ccccc1[N+](=O)[O-])N1c2nc(-c3ccccc3)nn2C2(CCCCC2)[C@@H]2CCCC[C@@H]21
876 | O=C(c1ccc(F)c(F)c1)N1CCN(C(=O)c2nnn3c2COC(c2ccccc2)C3)CC1 (stereo unspecified)
842 | Cc1cccc(NC(=O)c2ncn3c2C(=O)N(C2CC2)C(C)(C(=O)NC2CCCC2)C3)c1C (stereo unspecified)
